Results taken from patent US20210315837A1, “CANNABINOIDS FOR THE TREATMENT OF GRAM-POSITIVE INFECTIONS INCLUDING ANTIBIOTIC-RESISTANT BACTERIAL STRAINS” (priority 2018, published 2021).
≈ marks a conversion by molar mass, not a printed value. Where “and” joins values, the source holds several entries; their conditions need not be identical. Identical values can stand only once. Like-named read-outs stand apart in the source and are kept apart here.

Key:
[1] = test system: MRS 1696; test: Growth inhibition of cannabinoid combinations, IC50s chosen for FICs, MRS 1696; assay type: cell-based; settings: Staphylococcus aureus
[2] = test system: MRS 1708; test: Growth inhibition of cannabinoid combinations, IC50s chosen for FICs, MRS 1708; assay type: cell-based; settings: Staphylococcus aureus
[3] = test system: Mupirocin-resistant MRS; assay type: cell-based, Staphylococcus aureus; settings: in combination with Mupirocin
[4] = test system: MRS USA 400; test: IC50, MIC and MBC against MRS USA 400; assay type: cell-based, Staphylococcus aureus
Method: (§1) As used herein, the term “minimum inhibitory concentration (MIC)” refers to the lowest concentration of an antimicrobial agent that will inhibit the visible growth of a microorganism after overnight incubation. MIC values against bacteria may be determined by standard methods. See also P. A. Wayne, Methods for Dilution Antimicrobial Tests for Bacteria that Grow Aerobically; Approved Standard, Ninth Edition, 2012, CLSI Document M07-A9, Vol. 32 No. 2, which is incorporated by reference herein in its entirety.

[5] = test system: MRS 33591; test: Growth inhibition of cannabinoid combinations, IC50s chosen for FICs, MRS 33591; assay type: cell-based; settings: Staphylococcus aureus
[6] = test system: MRS USA 300; test: IC50, MIC and MBC against MRS USA 300; assay type: cell-based, Staphylococcus aureus
Method: as §1

[7] = test system: MRS 1708 (Mupirocin-resistant); test: IC50, MIC and MBC against MRS 1708 (Mupirocin-resistant); assay type: cell-based, Staphylococcus aureus; settings: for IC50 / MBC / MIC: Staphylococcus aureus
Method: as §1

[8] = test system: MRS 1717; test: Growth inhibition of cannabinoid combinations, IC50s chosen for FICs, MRS 1717; assay type: cell-based; settings: Staphylococcus aureus
[9] = test system: S. aureus 29213; test: IC50, MIC and MBC against S. aureus 29213; assay type: cell-based; settings: Staphylococcus aureus; for IC50: 29213; for MIC: S. aureus 29213, tested Conc. in μg/mL, read-out: MIC
Method: As used herein, the term “minimum inhibitory concentration (MIC)” refers to the lowest concentration of an antimicrobial agent that will inhibit the visible growth of a microorganism after overnight incubation. MIC values against bacteria may be determined by standard methods.

[10] = test system: MRS 33591; test: IC50, MIC and MBC against MRS 33591; assay type: cell-based, Staphylococcus aureus
Method: as §1

[11] = read-out: IC50, Cannabidiol (CBD) + Cannabigerol (CBG)
[12] = read-out: IC50, Cannabinol (CBN) + Cannabigerol (CBG)
[13] = IC50 of first-named cannabinoid at the fixed ug/mL of the second given in the label, read-out: IC50, Cannabinol (CBN) + Cannabigerol (CBG)
[14] = MRS USA 400, tested Conc. in μg/mL
[15] = MRS USA 300, tested Conc. in μg/mL
[16] = MRS 33591, tested Conc. in μg/mL
[17] = read-out: IC50, Cannabidiol (CBD) + Cannabinol (CBN)

Compound	IC50 [1, 12]	IC50 [2, 13]	effect of combination with Mupirocin [3]	MIC [4, 14]	IC50 ([4]; Staphylococcus aureus, USA400)	MBC ([4]; Staphylococcus aureus, USA400)	MIC ([4]; Staphylococcus aureus, USA400)	IC50 [5, 12]	MIC [6, 15]	IC50 ([6]; Staphylococcus aureus, USA300)	MBC ([6]; Staphylococcus aureus, USA300)	MIC ([6]; Staphylococcus aureus, USA300)	IC50 [7]	MBC [7]	MIC [7]	IC50 [8, 12]	IC50 [9]	MIC [9]	MBC [10, 16]	IC50 ([10]; Staphylococcus aureus)	further results
CCCCCc1cc(O)c(C/C=C(\C)CCC=C(C)C)c(O)c1 [CBG, Cannabigerol]	0.896 µg/mL	0.872 µg/mL	no effect	1.67	2.72 µM and 0.86 µg/mL	> 63 µM	5.28 ± 2.27 µM (≈ 1.67 µg/mL)	1.05 µg/mL	1.67	2.43 µM and 0.77 µg/mL	> 63 µM	5.28 ± 2.27 µM (≈ 1.67 µg/mL)	2.34 µM and 0.74 µg/mL	> 63 µM	3.95 µM (≈ 1.25 µg/mL)	0.911 µg/mL	0.75 µg/mL (≈ 2.37 µM)	1.25 µg/mL (≈ 3.95 µM)	3.75	2.31 µM and 0.73 µg/mL	IC50 [1, 11]: 0.9 µg/mL; IC50 ([2]; read-out: IC50, Cannabidiol (CBD) + Cannabigerol (CBG), IC50 of first-named cannabinoid at the fixed ug/mL of the second given in the label): 0.959 µg/mL; IC50 [5, 11]: 1.08 µg/mL; IC50 [8, 11]: 0.741 µg/mL; MBC ([10]; Staphylococcus aureus): 11.8 ± 5.59 µM (≈ 3.75 µg/mL); MIC ([10]; Staphylococcus aureus): 3.95 µM and 1.25 µg/mL
CCCCCc1cc(O)c2c(c1)OC(C)(C)c1ccc(C)cc1-2 [CNB, Cannabinol]	1.32 µg/mL	1.07 µg/mL	no effect	2.5 ± 0	4.16 µM and 1.29 µg/mL	18.8 ± 12.3 µM (≈ 5.83 µg/mL)	8.05 µM (≈ 2.5 µg/mL)	1.11 µg/mL	2.5 ± 0	3.32 µM and 1.03 µg/mL	10.7 ± 4.64 µM (≈ 3.33 µg/mL)	8.05 µM (≈ 2.5 µg/mL)	2.77 µM and 0.86 µg/mL	6.7 ± 2.32 µM (≈ 2.08 µg/mL)	5.38 ± 7.32 µM (≈ 1.67 µg/mL)	1.11 µg/mL	0.92 µg/mL (≈ 2.96 µM)	1.67 µg/mL (≈ 5.38 µM)	4.17	2.48 µM and 0.77 µg/mL	IC50 [1, 17]: 1.5 µg/mL; IC50 ([2]; read-out: IC50, Cannabidiol (CBD) + Cannabinol (CBN), IC50 of first-named cannabinoid at the fixed ug/mL of the second given in the label): 0.956 µg/mL; MBC [4, 14]: 5.83 ± 3.82; IC50 [5, 17]: 1.09 µg/mL; MBC [6, 15]: 3.33; AMC ([7]; Mupirocin-resistant MRS (Table 11)): 2.08 ± 0.72; IC50 [8, 17]: 0.908 µg/mL; MBC ([10]; Staphylococcus aureus): 13.4 ± 4.64 µM (≈ 4.17 µg/mL); MIC ([10]; Staphylococcus aureus): 4.03 µM and 1.25 µg/mL
